Laboratory results: patent publication US20240252488A1 (KOREA RESEARCH INSTITUTE OF CHEMICAL TECHNOLOGY, priority 2020, published 2024)

Tests used:
[1] = molecular target: T1, MLKL (Homo sapiens, UniProt Q8NB16); assay: MLKL degradation assay in HepG2 cell line (western blot); format: cell-based; design: endogenous in cells; host or cells: HepG2 or HaCaT; conditions: cell line not given; for Degradation assay (Degradation %) 1 μM: compound 1 μM; for Degradation assay (Degradation %) 10 μM: compound 10 μM
T1 sequence (Q8NB16 1-471): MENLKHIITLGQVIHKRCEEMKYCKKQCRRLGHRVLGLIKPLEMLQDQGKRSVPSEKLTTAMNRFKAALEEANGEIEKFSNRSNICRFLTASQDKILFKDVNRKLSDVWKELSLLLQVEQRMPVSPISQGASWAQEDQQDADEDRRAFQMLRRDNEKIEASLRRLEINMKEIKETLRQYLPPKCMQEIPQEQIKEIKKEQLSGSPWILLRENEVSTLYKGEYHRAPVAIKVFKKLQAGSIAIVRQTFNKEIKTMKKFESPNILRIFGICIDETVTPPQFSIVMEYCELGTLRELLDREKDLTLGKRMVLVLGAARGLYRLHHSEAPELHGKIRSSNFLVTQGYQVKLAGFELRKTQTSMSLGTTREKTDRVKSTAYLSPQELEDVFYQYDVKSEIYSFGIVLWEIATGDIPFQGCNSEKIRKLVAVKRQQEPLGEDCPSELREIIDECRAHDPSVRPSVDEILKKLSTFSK
How it was run: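 Western blot chemiluminescence of MLKL in equal-protein lysates (10-15 μg, BCA-adjusted). Before lysis, HepG2 cells were exposed to 1 or 10 μM (final) test compound for 20-24 h at 37 °C.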

[2] = molecular target: T1, MLKL; assay: Measurement of binding affinity with MLKL receptor (competitive binding assay, Kd); design: made in house; host or cells: HEK 293 cell line (T7 phage in E. coli BL21-derived host is also described)
How it was run: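 Competition binding of kinase tagged with DNA for qPCR detection, expressed in HEK 293 cells, against immobilized ligand on beads. Final DMSO 0.9%. Kd derived from kinase amount in eluates measured by qPCR.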

[3] = system: FADD−/− Jurkat cells; assay: Necroptosis inhibition assay, TNF-α-induced necroptosis (CellTiter-Glo 2.0); format: cell-based, human; conditions: TNF-α 15 ng/mL, FADD−/− Jurkat cells; for Necroptosis inhibition assay (Rescue %) 1 μM: compound 1 μM; for Necroptosis inhibition assay (Rescue %) 10 μM: compound 10 μM
How it was run: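 Necroptosis induced by 15 ng/mL TNF-α (final) for 20–24 h at 37 °C, after a 30 min room-temperature pretreatment of FADD-deficient Jurkat cells with 0.1, 1 or 10 μM compound. ATP-based luminescence gave viability, from which inhibition rate and cytotoxicity were derived.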

Compound | Degradation assay (Degradation %) 1 μM [1] | Degradation assay (Degradation %) 10 μM [1] | Kd [2] | Necroptosis inhibition assay (Rescue %) 1 μM [3] | Necroptosis inhibition assay (Rescue %) 10 μM [3]
Nc1ncc(-c2cnn(C3CCN(CCCC4CCN(C(=O)CNc5ccc6c(c5)C(=O)N(C5CCC(=O)NC5=O)C6=O)CC4)CC3)c2)nc1C(=O)O[C@@H](C(=O)Nc1ccc(F)cc1)c1ccccc1 (stereo partly drawn) [TDH-483, (R)-2-((4-fluorophenyl)amino)-2-oxo-1-phenylethyl 3-amino-6-(1-(1-(3-(1-((2-(2,6-dioxopiperidin-3-yl)-1,3-dioxoisoindolin-5-yl)glycyl)piperidin-4-yl)propyl)piperidin-4-yl)-1H-pyrazol-4-yl)pyrazine-2-carboxylate] | 86.34% | 84.54% | 2.5 nM | 62.95% | 37.9%
Nc1ncc(-c2cnn(C3CCN(CCCC4CCN(C(=O)CCc5ccc6c(c5)C(=O)N(C5CCC(=O)NC5=O)C6=O)CC4)CC3)c2)nc1C(=O)O[C@@H](C(=O)Nc1ccc(F)cc1)c1ccccc1 (stereo partly drawn) [TDH-484, (R)-2-((4-fluorophenyl)amino)-2-oxo-1-phenylethyl 3-amino-6-(1-(1-(3-(1-(3-(2-(2,6-dioxopiperidin-3-yl)-1,3-dioxoisoindolin-5-yl)propanoyl)piperidin-4-yl)propyl)piperidin-4-yl)-1H-pyrazol-4-yl)pyrazine-2-carboxylate] | 89.17% | 91.3% | 0.92 nM | 66.68% | 37.9%
Nc1ncc(-c2cnn(C3CCN(CCCN4CCN(C(=O)COc5ccc6c(c5)C(=O)N(C5CCC(=O)NC5=O)C6=O)CC4)CC3)c2)nc1C(=O)O[C@@H](C(=O)Nc1cccc(Cl)c1)c1ccccc1 (stereo partly drawn) [TDH-485, (R)-2-((3-chlorophenyl)amino)-2-oxo-1-phenylethyl 3-amino-6-(1-(1-(3-(4-(2-((2-(2,6-dioxopiperidin-3-yl)-1,3-dioxoisoindolin-5-yl)oxy)acetyl)piperazin-1-yl)propyl)piperidin-4-yl)-1H-pyrazol-4-yl)pyrazine-2-carboxylate] | 87.46% | 93.6% | 10 nM | 61.51% | 50.03%
COc1cccc(NC(=O)[C@H](OC(=O)c2nc(-c3cnn(C4CCN(CCCN5CCN(C(=O)COc6ccc7c(c6)C(=O)N(C6CCC(=O)NC6=O)C7=O)CC5)CC4)c3)cnc2N)c2ccccc2)c1 (stereo partly drawn) [TDH-486, (R)-2-((3-methoxyphenyl)amino)-2-oxo-1-phenylethyl 3-amino-6-(1-(1-(3-(4-(2-((2-(2,6-dioxopiperidin-3-yl)-1,3-dioxoisoindolin-5-yl)oxy)acetyl)piperazin-1-yl)propyl)piperidin-4-yl)-1H-pyrazol-4-yl)pyrazine-2-carboxylate] | 85.37% | 88.15% | 2.5 nM | 77.72% | 34.5%
Cc1cccc(NC(=O)[C@H](OC(=O)c2nc(-c3cnn(C4CCN(CCCN5CCN(C(=O)COc6ccc7c(c6)C(=O)N(C6CCC(=O)NC6=O)C7=O)CC5)CC4)c3)cnc2N)c2ccccc2)c1 (stereo partly drawn) [TDH-487, (R)-2-oxo-1-phenyl-2-(m-tolylamino)ethyl 3-amino-6-(1-(1-(3-(4-(2-((2-(2,6-dioxopiperidin-3-yl)-1,3-dioxoisoindolin-5-yl)oxy)acetyl)piperazin-1-yl)propyl)piperidin-4-yl)-1H-pyrazol-4-yl)pyrazine-2-carboxylate] | 77.25% | 89.93% | 4.3 nM | 59.49% | 58.14%
Nc1ncc(-c2cnn(C3CCN(CCCN4CCN(C(=O)Cc5cccc(NC6=CC(=O)N(C7CCC(=O)NC7=O)C6=O)c5)CC4)CC3)c2)nc1C(=O)O[C@@H](C(=O)Nc1ccc(F)cc1)c1ccccc1 (stereo partly drawn) [TDH-495, (R)-2-((4-fluorophenyl)amino)-2-oxo-1-phenylethyl 3-amino-6-(1-(1-(3-(4-(2-(3-((1-(2,6-dioxopiperidin-3-yl)-2,5-dioxo-2,5-dihydro-1H-pyrrol-3-yl)amino)phenyl)acetyl)piperazin-1-yl)propyl)piperidin-4-yl)-1H-pyrazol-4-yl)pyrazine-2-carboxylate] | 81.34% | 85.73% | 1.3 nM | 42.19% | 17.62%

Further lines, with some results ahead:

Degradation assay (Degradation %) 1 μM [1] | Degradation assay (Degradation %) 10 μM [1] | Kd [2] | Compound | Necroptosis inhibition assay (Rescue %) 1 μM [3] | Necroptosis inhibition assay (Rescue %) 10 μM [3]
19.04% | 14.39% | 78 nM | Nc1ncc(-c2cnn(C3CCN(CCCN4CCN(c5ccc6c(c5)C(=O)N(C5CCC(=O)NC5=O)C6=O)CC4)CC3)c2)nc1C(=O)N[C@@H](C(=O)Nc1ccc(F)cc1)c1ccccc1 (stereo partly drawn) [TDH-491, 3-amino-6-(1-(1-(3-(4-(2-(2,6-dioxopiperidin-3-yl)-1,3-dioxoisoindolin-5-yl)piperazin-1-yl)propyl)piperidin-4-yl)-1H-pyrazol-4-yl)-N-((R)-2-((4-fluorophenyl)amino)-2-oxo-1-phenylethyl)pyrazine-2-carboxamide] | 0.07% | −24.78%
13.74% | 14.89% | 39 nM | Nc1ncc(-c2cnn(C3CCN(CCCN4CCN(C(=O)COc5ccc6c(c5)C(=O)N(C5CCC(=O)NC5=O)C6=O)CC4)CC3)c2)nc1C(=O)N[C@@H](C(=O)Nc1ccc(F)cc1)c1ccccc1 (stereo partly drawn) [TDH-492, 3-amino-6-(1-(1-(3-(4-(2-((2-(2,6-dioxopiperidin-3-yl)-1,3-dioxoisoindolin-5-yl)oxy)acetyl)piperazin-1-yl)propyl)piperidin-4-yl)-1H-pyrazol-4-yl)-N-((R)-2-((4-fluorophenyl)amino)-2-oxo-1-phenylethyl)pyrazine-2-carboxamide] | 10.33% | 4.12%
80.66% | 88.82% | 0.98 nM | Nc1ncc(-c2cnn(C3CCN(CCCN4CCN(C(=O)COc5ccc6c(c5)C(=O)N(C5CCC(=O)NC5=O)C6=O)CC4)CC3)c2)nc1C(=O)O[C@@H](C(=O)Nc1ccc(F)cc1)c1ccccc1Cl (stereo partly drawn) [TDH-494, (R)-1-(2-chlorophenyl)-2-((4-fluorophenyl)amino)-2-oxoethyl 3-amino-6-(1-(1-(3-(4-(2-((2-(2,6-dioxopiperidin-3-yl)-1,3-dioxoisoindolin-5-yl)oxy)acetyl)piperazin-1-yl)propyl)piperidin-4-yl)-1H-pyrazol-4-yl)pyrazine-2-carboxylate] | 43.07% | −7.06%
